# Legend:
# Test in all cases: Post-emergence herbicidal activity test (stem and leaf spray, pot culture)
# Type in all cases: in vivo
# Conditions in all cases: 3 weeks after spraying
# Abutilon theophrasti = system: Abutilon theophrasti
# In short: (§1)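 Read-out: fresh weight control rate 3 weeks post-spray, graded 5 (≥85%) down to 0 (<5%). Foliar spray at 2–3-leaf stage; rates 10, 5, 2.5 g/mu; acetone + Tween 80 formulation with methyl oleate synergist; greenhouse 20–30 °C, natural light.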
# Amaranthus retroflexus = system: Amaranthus retroflexus
# In short: as §1
# Echinochloa crusgalli = system: Echinochloa crusgalli
# In short: as §1
# Portulaca oleracea = system: Portulaca oleracea
# In short: as §1
# Setaria viridis = system: Setaria viridis
# In short: as §1
# Trifoliumre pensL. = system: Trifoliumre pensL.
# In short: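 Pot-grown weeds in loam (pH 7), greenhouse at 20–30 °C, sprayed once post-emergence at the 2–3-leaf stage. Compound in acetone with Tween 80 plus methyl oleate oil (1.5 L/ha), applied at 10, 5 and 2.5 g/mu by spray tower. Effect scored 3 weeks after spraying, averaged over three repeats.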
SMILES,"Post-emergence herbicidal activity, A. theophrasti (grade) (Abutilon theophrasti; dosage 2.5 g/mu)","Post-emergence herbicidal activity, A. theophrasti (grade) (Abutilon theophrasti; dosage 5 g/mu)","Post-emergence herbicidal activity, A. theophrasti (grade) (Abutilon theophrasti; dosage 10 g/mu)","Post-emergence herbicidal activity, A. retroflexus (grade) (Amaranthus retroflexus; dosage 2.5 g/mu)","Post-emergence herbicidal activity, A. retroflexus (grade) (Amaranthus retroflexus; dosage 5 g/mu)","Post-emergence herbicidal activity, A. retroflexus (grade) (Amaranthus retroflexus; dosage 10 g/mu)","Post-emergence herbicidal activity, E. crusgalli (grade) (Echinochloa crusgalli; dosage 2.5 g/mu)","Post-emergence herbicidal activity, E. crusgalli (grade) (Echinochloa crusgalli; dosage 5 g/mu)","Post-emergence herbicidal activity, E. crusgalli (grade) (Echinochloa crusgalli; dosage 10 g/mu)","Post-emergence herbicidal activity, P. oleracea (grade) (Portulaca oleracea; dosage 2.5 g/mu)","Post-emergence herbicidal activity, P. oleracea (grade) (Portulaca oleracea; dosage 5 g/mu)","Post-emergence herbicidal activity, P. oleracea (grade) (Portulaca oleracea; dosage 10 g/mu)","Post-emergence herbicidal activity, S. viridis (grade) (Setaria viridis; dosage 2.5 g/mu)","Post-emergence herbicidal activity, S. viridis (grade) (Setaria viridis; dosage 5 g/mu)","Post-emergence herbicidal activity, S. viridis (grade) (Setaria viridis; dosage 10 g/mu)","Post-emergence herbicidal activity, Trifoliumre pensL. (grade) (Trifoliumre pensL.; dosage 2.5 g/mu)","Post-emergence herbicidal activity, Trifoliumre pensL. (grade) (Trifoliumre pensL.; dosage 5 g/mu)","Post-emergence herbicidal activity, Trifoliumre pensL. (grade) (Trifoliumre pensL.; dosage 10 g/mu)"
O=C1C2=C(CCCC2)C(=O)N1c1cc(OCc2nc(-c3ccc(F)cc3F)no2)c(Cl)cc1F [Compound A6],5 (Grade 5: the growth control rate is greater than or equal to 85%),5 (Grade 5: the growth control rate is greater than or equal to 85%),5 (Grade 5: the growth control rate is greater than or equal to 85%),5 (Grade 5: the growth control rate is greater than or equal to 85%),5 (Grade 5: the growth control rate is greater than or equal to 85%),5 (Grade 5: the growth control rate is greater than or equal to 85%),1 (Grade 1: the growth control rate is greater than or equal to 5% and less than 20%),2 (Grade 2: the growth control rate is greater than or equal to 20% and less than 40%),3 (Grade 3: the growth control rate is greater than or equal to 40% and less than 60%),4 (Grade 4: the growth control rate is greater than or equal to 60% and less than 85%),5 (Grade 5: the growth control rate is greater than or equal to 85%),5 (Grade 5: the growth control rate is greater than or equal to 85%),2 (Grade 2: the growth control rate is greater than or equal to 20% and less than 40%),3 (Grade 3: the growth control rate is greater than or equal to 40% and less than 60%),4 (Grade 4: the growth control rate is greater than or equal to 60% and less than 85%),4 (Grade 4: the growth control rate is greater than or equal to 60% and less than 85%),5 (Grade 5: the growth control rate is greater than or equal to 85%),5 (Grade 5: the growth control rate is greater than or equal to 85%)
O=C1C2=C(CCCC2)C(=O)N1c1cc(OCc2nnc(-c3cccc([N+](=O)[O-])c3)o2)c(Cl)cc1F [Compound B12],5 (Grade 5: the growth control rate is greater than or equal to 85%),5 (Grade 5: the growth control rate is greater than or equal to 85%),5 (Grade 5: the growth control rate is greater than or equal to 85%),5 (Grade 5: the growth control rate is greater than or equal to 85%),5 (Grade 5: the growth control rate is greater than or equal to 85%),5 (Grade 5: the growth control rate is greater than or equal to 85%),1 (Grade 1: the growth control rate is greater than or equal to 5% and less than 20%),2 (Grade 2: the growth control rate is greater than or equal to 20% and less than 40%),3 (Grade 3: the growth control rate is greater than or equal to 40% and less than 60%),5 (Grade 5: the growth control rate is greater than or equal to 85%),5 (Grade 5: the growth control rate is greater than or equal to 85%),5 (Grade 5: the growth control rate is greater than or equal to 85%),2 (Grade 2: the growth control rate is greater than or equal to 20% and less than 40%),3 (Grade 3: the growth control rate is greater than or equal to 40% and less than 60%),4 (Grade 4: the growth control rate is greater than or equal to 60% and less than 85%),5 (Grade 5: the growth control rate is greater than or equal to 85%),5 (Grade 5: the growth control rate is greater than or equal to 85%),5 (Grade 5: the growth control rate is greater than or equal to 85%)
"O=C(COc1cc(N2C(=O)C3=C(CCCC3)C2=O)c(F)cc1Cl)c1cccc(F)c1 [Compound C7, 2-(4-chloro-2-fluoro-5-(2-oxo-2-(3-fluorophenyl)ethoxy)phenyl)-4,5,6,7-tetrahydro-1H-isoindole-1,3(2H)-dione]",5 (Grade 5: the growth control rate is greater than or equal to 85%),5 (Grade 5: the growth control rate is greater than or equal to 85%),5 (Grade 5: the growth control rate is greater than or equal to 85%),5 (Grade 5: the growth control rate is greater than or equal to 85%),5 (Grade 5: the growth control rate is greater than or equal to 85%),5 (Grade 5: the growth control rate is greater than or equal to 85%),1 (Grade 1: the growth control rate is greater than or equal to 5% and less than 20%),2 (Grade 2: the growth control rate is greater than or equal to 20% and less than 40%),3 (Grade 3: the growth control rate is greater than or equal to 40% and less than 60%),5 (Grade 5: the growth control rate is greater than or equal to 85%),5 (Grade 5: the growth control rate is greater than or equal to 85%),5 (Grade 5: the growth control rate is greater than or equal to 85%),2 (Grade 2: the growth control rate is greater than or equal to 20% and less than 40%),3 (Grade 3: the growth control rate is greater than or equal to 40% and less than 60%),4 (Grade 4: the growth control rate is greater than or equal to 60% and less than 85%),5 (Grade 5: the growth control rate is greater than or equal to 85%),5 (Grade 5: the growth control rate is greater than or equal to 85%),5 (Grade 5: the growth control rate is greater than or equal to 85%)

# From US20240300932A1, “N-PHENYLIMINE DERIVATIVE AND PREPARATION METHOD AND USE THEREOF” (Guizhou University, priority 2023, published 2024)
